We go through four molecules from ChEMBL document CHEMBL1201862, “PubChem BioAssay data set” (2004).

Test systems include SK-MEL-5; SNB-19; NCI-H460; NCI-H23; SF-539; EKVX; A549; MDA-MB-435; OVCAR-8; HOP-92; Malme-3M; MOLT-4; IGROV-1; RXF 393; HT-29; HCT-15; HCT-116; NCI/ADR-RES; OVCAR-4.
Assay in all cases: NCI tumour cell line growth inhibition, 48 h

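Five compound concentrations were applied to cells in 96-well plates for 48 hours; endpoints were derived by simple linear interpolation of the resulting dose-response curve. GI50: concentration for 50% inhibition of growth.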 Calls of active or inactive are those of the source. Cut-off read from the data, not from the text of the source: active = GI50 up to about 1.1 µM and inactive = higher.

Regarding `O=c1c(Br)cc2c(-c3ccccc3)c3cc(Br)c(O)c(Br)c3oc-2c1Br`, the GI50 was > 100 µM (inactive) in the assay with SK-MEL-5; > 100 µM (inactive) with SNB-19; 77.4 µM (inactive) in the assay on NCI-H460; > 100 µM (inactive) with NCI-H23; 39.5 µM (inactive) in the assay with SF-539; > 100 µM (inactive) in the assay on EKVX. Also, the GI50 in the assay on A549 was > 100 µM (inactive); in the assay with MDA-MB-435, > 100 µM (inactive); in the assay with OVCAR-8 it was > 100 µM (inactive); in the assay with HOP-92, > 100 µM (inactive); in the assay with Malme-3M it was > 100 µM (inactive); with MOLT-4 it was 29.1 µM (inactive). In addition, the GI50 is > 100 µM (inactive) in the assay with IGROV-1; > 100 µM (inactive) in the assay with RXF 393; 21.7 µM (inactive) with HT-29; 56 µM in the assay on HCT-15; 44.8 µM (inactive) in the assay on HCT-116; > 100 µM (inactive) in the assay on NCI/ADR-RES. Further, the GI50 with OVCAR-4 is 22.3 µM (inactive).

Turning to `N#CCCC1(CCC#N)CCCCCCCCC(CCC#N)(CCC#N)C(O)C1O` (stereo not drawn), the GI50 in the assay on SK-MEL-5 was > 100 µM (inactive); in the assay on SNB-19 it was 66.7 µM (inactive); with NCI-H460, > 100 µM (inactive); in the assay with NCI-H23 it was > 100 µM (inactive); in the assay with SF-539 it was 29.8 µM (inactive); in the assay on EKVX, > 100 µM (inactive). For the same molecule, the GI50 in the assay with A549 was 73.6 µM (inactive); in the assay on MDA-MB-435, > 100 µM (inactive); in the assay with OVCAR-8 it was > 100 µM (inactive); with HOP-92, > 100 µM (inactive); with Malme-3M, > 100 µM (inactive); in the assay on IGROV-1, > 100 µM (inactive). Further, the GI50 in the assay with RXF 393 was 31.9 µM (inactive); with HT-29, > 100 µM (inactive); in the assay on HCT-15, above 100 µM; in the assay with HCT-116 it was > 100 µM (inactive); in the assay on NCI/ADR-RES it was > 100 µM (inactive); with OVCAR-4, > 100 µM (inactive).

For `COc1ccc(-c2c(C(C)=O)c(C)n(C3OC(COC(C)=O)C(OC(C)=O)C(OC(C)=O)C3OC(C)=O)c(=S)c2C#N)cc1` (stereo not drawn), the GI50 in the assay on SK-MEL-5 is 63.1 µM (inactive); in the assay with SNB-19, 89.9 µM (inactive); with NCI-H460, 81.5 µM (inactive); with NCI-H23 it was > 100 µM (inactive); in the assay with SF-539, > 100 µM (inactive); with A549, 66.2 µM (inactive). Also, the GI50 with MDA-MB-435 is > 100 µM (inactive); in the assay on OVCAR-8, > 100 µM (inactive); in the assay with HOP-92, 15 µM (inactive); in the assay on Malme-3M, > 100 µM (inactive); in the assay with MOLT-4 it was 43 µM (inactive); in the assay on IGROV-1, > 100 µM (inactive). In addition, the GI50 in the assay with RXF 393 is 80.7 µM (inactive); with HT-29, > 100 µM (inactive); with HCT-15, above 100 µM; in the assay with HCT-116, 72.1 µM (inactive); in the assay with NCI/ADR-RES, 71 µM (inactive); in the assay on OVCAR-4 it was 73.1 µM (inactive).

As for `CSc1ncnc2c1ncn2CCC(=O)OC(C)(C)C`, the GI50 with SK-MEL-5, with SNB-19, with NCI-H460, with NCI-H23, in the assay on SF-539 and in the assay on EKVX was > 100 µM (inactive) in each case. Besides, the GI50 in the assay with A549, with MDA-MB-435, in the assay on OVCAR-8, in the assay with HOP-92, in the assay on Malme-3M and in the assay on MOLT-4 was > 100 µM (inactive) throughout. Further, the GI50 in the assay on IGROV-1, with RXF 393, in the assay on HT-29, in the assay on HCT-116, with NCI/ADR-RES and in the assay with OVCAR-4 was > 100 µM (inactive) throughout.
